Columns and labels:
Assay type in all cases: cell-based
[1] = tested on: MCF-7; assay: Cell growth test (Cell Titer Blue) MCF-7; settings: Homo sapiens, MCF7, 72 h, MCF-7, Breast cancer, 3 days
Method: (§1) Moreover, the compound of Example 14 was subjected to a cell growth test using various types of cell lines.
(§2) All cell lines other than the below-noticed cells were each seeded in a well plate, in which an RPMI-1640 medium supplemented with penicillin/streptomycin and FBS with a final concentration of 10% was placed. The human prostate cancer cell line VCaP (ATCC) was seeded in a well plate, in which DMEM medium supplemented with penicillin/streptomycin and FBS with a final concentration of 10% was placed. […] Thereafter, using Enspire Multimode Plate Reader (PerkinElmer), the amount of fluorescence at an excitation wavelength of 531 nm and a fluorescence wavelength of 615 nm was measured. Since the amount of fluorescence is in proportion to the concentration of a florescent product resorufin that is converted from resazurin as a redox dye by living cells, the amount of fluorescence was used as an indicator of the number of living cells. The growth inhibition percentage of the test compound in each concentration was calculated according to the following equation. Growth inhibition percentage (%)=(amount of fluorescence in test compound−added well)/(amount of fluorescence in DMSO−added well)×100 […]

[2] = tested on: T-24; assay: Cell growth test (Cell Titer Blue) T-24; settings: Homo sapiens, 72 h, T-24, Bladder cancer, 3 days
Method: as §1, §2

[3] = tested on: KG-1; assay: Cell growth test (Cell Titer Blue) KG-1; settings: Homo sapiens, 72 h, KG-1, Acute myeloid leukemia, 3 days
Method: as §1, §2

[4] = tested on: HCT-15; assay: Cell growth test (Cell Titer Blue) HCT-15; settings: Homo sapiens, 72 h, HCT-15, Colon cancer, 3 days
Method: as §1, §2

[5] = tested on: BxPC-3; assay: Cell growth test (Cell Titer Blue) BxPC-3; settings: Homo sapiens, 72 h, BxPC-3, Pancreatic cancer, 3 days
Method: as §1, §2

[6] = tested on: MDA-MB-435; assay: Cell growth test (Cell Titer Blue) MDA-MB-435; settings: Homo sapiens, 72 h, MDA-MB-435, Melanoma, 3 days
Method: as §1, §2

[7] = tested on: KM12; assay: Cell growth test (Cell Titer Blue) KM12; settings: Homo sapiens, 72 h, KM12, Colon cancer, 3 days
Method: as §1, §2

[8] = tested on: WSU-DLCL2; assay: Cell growth test (Cell Titer Blue) WSU-DLCL2; settings: Homo sapiens, WSUDLCL2, 72 h, WSU-DLCL2, Lymphoma, 3 days
Method: as §1, §2

[9] = tested on: CCRF-CEM; assay: Cell growth test (Cell Titer Blue) CCRF-CEM; settings: Homo sapiens, 72 h, Acute lymphoblastic leukemia, 3 days
Method: as §1, §2

[10] = tested on: Jurkat; assay: Cell growth test (Cell Titer Blue) Jurkat; settings: Homo sapiens, 72 h, Acute lymphoblastic leukemia, 3 days
Method: as §1, §2

[11] = tested on: A2780; assay: Cell growth test (Cell Titer Blue) A2780; settings: Homo sapiens, 72 h, A2780, Ovarian cancer, 3 days
Method: as §1, §2

[12] = tested on: HOP-62; assay: Cell growth test (Cell Titer Blue) HOP-62; settings: Homo sapiens, 72 h, HOP-62, Lung cancer, 3 days
Method: as §1, §2

[13] = tested on: PANC-1; assay: Cell growth test (Cell Titer Blue) PANC-1; settings: Homo sapiens, 72 h, PANC-1, Pancreatic cancer, 3 days
Method: as §1, §2

GI50 [1]: 0.689 µM | GI50 [4]: 0.505 µM | GI50 [5]: 2.55 µM | GI50 [6]: 2.78 µM | GI50 [9]: 0.065 µM | GI50 [10]: 0.129 µM | GI50 [11]: 0.582 µM | GI50 [13]: 2.98 µM
SMILES: CCn1c(=O)cc(C2CCN(C)CC2)c2cc(C(=O)N(C)c3ccc(C)cc3)ccc21 [Example 14, 1-Ethyl-N-methyl-N-(4-methylphenyl)-4-(1-methylpiperidin-4-yl)-2-oxo-1,2-dihydroquinoline-6-carboxamide]
GI50 [2]: 3.04 µM | GI50 [3]: 0.057 µM | GI50 [7]: 1.49 µM | GI50 [8]: 0.091 µM | GI50 [12]: 0.143 µM
